{"source": "patent US6746673B2", "about": "“Pharmaceutical compositions containing anti-Fas antibody” (Sankyo Company, Limited, priority 1999, dated 2004)", "system": "Human lymphocyte cell stock HPB-ALL", "assay": "XTT cell viability assay of apoptosis induction in HPB-ALL cells", "format": "cell-based", "details": "only methotrexate added, no anti-Fas antibody, FIG. 3", "procedure": "Human lymphocyte cell stock HPB-ALL (cf. Morikawa, S., et al. (1978) Int. J. Cancer 21, 166-170) was cultured in RPMI 1640 medium containing 10% FCS (manufactured by Gibco B.R.L. Corporation) at 37° C., in the presence of 5% carbon dioxide gas for three days, and 50 μl of the culture (2.5×10^5 cells/50 μl) were dispensed into each well of a 96-well microplate (manufactured by Sumitomo Bakelite Co., Ltd.). Then, 50 μl of the RPMI medium containing methotrexate (manufactured by Sigma Chemical Company), and an anti-Fas antibody (CH11 or HFE7A, 0.001 mg/ml solution was serially diluted by three times) were added to each well, and was cultured at 37° C.\nThe cells in the plate to which CH11 was added as an anti-Fas antibody were kept to be cultured at 37° C. overnight. […] The plate was then incubated for 3 hours at 37° C., and the absorbance at 450 nm of each well was measured, to calculate cell viability, using the reducing power of the mitochondria as the index.\nThe viability of the cells in each well was calculated according to the following equation: […]\nwherein “a” is the absorbance of a test well, “b” is the absorbance of a well with no cells and c is the absorbance of a well with no antibody added."}
{"smiles": "CN(Cc1cnc2nc(N)nc(N)c2n1)c1ccc(C(=O)N[C@@H](CCC(=O)O)C(=O)O)cc1", "note": "[methotrexate, Methotrexate]", "values": [{"measurement": "viability of the cells", "result": "almost no change"}]}
